Measured values published in US20260207626A1, “SYNTHETIC TRITERPENOIDS AND COMPOSITIONS THEREOF IN WEIGHT MANAGEMENT, SKELETAL MUSCLE FUNCTION, AND APPETITE SUPPRESSION” (The Board of Regents of the University of Texas System, priority 2022, published 2026).
“And” between values parts separate entries of the source, which are not always exact repeats. Equal values may be shown once.

Columns and labels:
[1] = system: MCP-1; test: LPS-induced MCP-1 ELISA in RAW264.7 macrophages (CDDO-EA batches); type: cell-based, mouse; settings: for MCP-1 production: LPS-induced, macrophages in cell culture; for MCP-1 level (ELISA), average: Table 4 (two values); for fold difference in the decrease of MCP-1 production: versus LPS alone
Description: Macrophages were pre-treated with 500 nM CDDO-EA #1 or 500 nM CDDO-EA #2, for 1 hour. The microphages were then stimulated with 100 ng/ml of lipopolysaccharide (LPS) for 6 hr. Supernatants were collected from each culture. An enzyme linked immunoassay (ELISA) was performed to detect levels of the pro-inflammatory protein, monocyte chemotactic protein-1 (MCP-1). The macrophages were also treated with LPS alone or with CDDO-EA alone. A control (no treatment) group was also included in the study.
The second batch of CDDO-EA was tested for its biological property of anti-inflammatory activity. As with the first batch of CDDO-EA, this was tested by using the mouse macrophage cell line RAW264.7. RAW264.7 macrophages were pre-treated with 500 nM CDDO-EA for 1 hour then stimulated with 100 ng/ml of lipopolysaccharide (LPS) for 6 hr. Supernatants were collected, and an enzyme linked immunoassay (ELISA) was performed to detect the pro-inflammatory protein, monocyte chemotactic protein-1 (MCP-1). The macrophages were also treated with LPS alone or with CDDO-EA alone. A control (no treatment) group was also included in the study. […] This suppression of MCP-1 production by the second batch CDDO-EA is similar to that observed for the first batch of CDDO-EA. (See FIG. 21).

[2] = system: transforming growth factor-β (TGF-β)/Smad signaling; settings: Suh et al., 2003, Minns et al., 2004, Mix et al.; cited from earlier work
[3] = system: heme-oxygenase-1 and Nrf2/ARE signaling; settings: Liby et al., 2005; cited from earlier work
[4] = Shin et al.; oral gavage 30 μmol/kg three times a week, HFD 82 days; interpretation questioned by the applicant; cited from earlier work
[5] = system: IκB-α; settings: Saha et al.; liver homogenates, HFD mice; cited from earlier work
[6] = system: AMPK; settings: Saha et al.; cited from earlier work
[7] = system: N171-82Q mice; settings: cited from earlier work
[8] = system: GLUT4; test: GLUT4myc translocation by immunofluorescence in L6-GLUT4myc myotubes; type: cell-based, rat; settings: CDDO-EA 500 nM 1 h; insulin 100 nM 15 min
Description: Immunofluorescence and confocal microscopy were employed to visualize the localization of c-myc epitope-tagged GLUT4 in L6-GLUT4myc myotubes treated with CDDO-EA for 1 h. L6-GLUT4myc myotubes were also treated with insulin alone for 15 min as a positive control.
To examine the properties of CDDO-EA in regulating glucose metabolism in the skeletal muscle, the present study examined whether CDDO-EA induces translocation of GLUT4 to the cell surface (FIG. 16A). Immunofluorescence and confocal microscopy were used to visualize the localization of c-myc epitope-tagged GLUT4 in L6-GLUT4myc cells.
Immunofluorescence microscopy: L6-GLUT4myc myoblasts (4×10^4 cells/ml, 0.2 ml/well) were plated onto Nunc Lab-TekII 8-chamber slides (Thermo Fisher Scientific) and differentiated for 7 days. Myotubes were pre-treated with CDDO-EA 500 nM for 1 h followed by LPS 100 ng/ml (E. coli O111: B4, Sigma Aldrich) treatment for 1 h. After treatment, myotubes were fixed, permeabilized, and stained with anti-NF-κB p65 primary antibody (cat #sc-372, 1:100, Santa Cruz Biotechnology) and a goat anti-rabbit secondary antibody conjugated with Alexa Fluor® 488 (cat #A32731, 1:500, Invitrogen) as previously described. For GLUT4myc cell membrane staining, myotubes were pre-treated with CDDO-EA 500 nM for 1 h followed by LPS 100 ng/ml (E. coli 0111: B4, Sigma Aldrich) treatment for 1 h. Insulin 100 nM (cat #19278, Sigma Aldrich) treatment was for 15 min. After CDDO-EA, LPS, and insulin treatment, myotubes were fixed without permeabilization and stained with anti-c-myc primary antibody (cat #C3956, 1:100, Sigma Aldrich) and a goat anti-rabbit secondary antibody conjugated with Alexa Fluor® 488 (cat #A32731, 1:500, Invitrogen) as previously described.

[9] = system: GLUT4; test: Colorimetric assay of cell surface GLUT4 in L6GLUT4myc myotubes (preliminary data); type: cell-based, rat; settings: FIG. 30
Description: Is CDDO-EA-mediated GLUT4 translocation dependent on AMPK activation? The catalytic subunit alpha-1 (α1) of AMPK will be KD by siRNA. Cells will be treated with CDDO-EA (500 nM, 1 hour), insulin ([…] for 15 min), or insulin and CDDO-EA to determine if there is a synergistic effect on GLUT4 translocation. Also, cells will be treated with the AMPK activator, 5-aminoimidazole-4-carboxamide ribonucleoside (AICAR, 1 mM, 40 minutes), as a positive control. We will use a colorimetric assay to quantitatively measure the levels of cell surface GLUT4 in 3T3-L1 adipocytes and L6GLUT4myc myotubes^37. […] GLUT4 translocation will be detected via immunofluorescence. Subcellular protein fractionation will be conducted to detect GLUT4 in the sarcolemma for myotubes and plasma membrane for adipocytes and GLUT2 in the plasma membrane of hepatocytes via Western blotting. GLUT2 will be measured in hepatocytes because GLUT2 is the most abundant glucose transporter in hepatocytes^38. To measure glucose uptake, a non-radioactive, plate-based bioluminescent assay (Glucose Uptake-Glo, Promega) will be performed. Using Glucose Uptake-Glo, insulin induces glucose uptake in L6GLUT4my myotubes. Phosphorylation of AMPK at Thr^172 and phosphorylation of ACC at Ser^79 indicates activation of the AMPK pathway. Thus, phosphorylation of AMPK Thr^172 and ACC Ser^79 will be shown through Western blotting. […]

[10] = RAW264.7, 500 nM CDDO-EA batch 1 hour then 100 ng/ml LPS 6 hr
[11] = RAW264.7, 500 nM CDDO-EA batch alone, no LPS
[12] = 500 nM CDDO-EA batch 1 hour then 100 ng/ml LPS 6 hr
[13] = 500 nM CDDO-EA batch alone, no LPS
[14] = Table 5, 500 nM CDDO-EA batch 1 hour then 100 ng/ml LPS 6 hr
[15] = Table 5, 500 nM CDDO-EA batch alone, no LPS

| Molecule | MCP-1 level (ELISA), individual values [1, 10] | MCP-1 level (ELISA), individual values [1, 11] | MCP-1 level (ELISA), average [1, 12] | MCP-1 level (ELISA), average [1, 13] | MCP-1 level (ELISA), mean of four values [1, 14] | MCP-1 level (ELISA), mean of four values [1, 15] | modulation of TGF-β/Smad signaling [2] | induction of heme-oxygenase-1 and Nrf2/ARE signaling [3] | also measured |
| --- | --- | --- | --- | --- | --- | --- | --- | --- | --- |
| CCNC(=O)[C@]12CCC(C)(C)C[C@H]1C1C(=O)C=C3[C@@]4(C)C=C(C#N)C(=O)C(C)(C)[C@@H]4CC[C@@]3(C)[C@]1(C)CC2 (stereo partly drawn) [CDDO-EA #1, (4aS,6aR,6bS,8aR,12aS,14bS)-11-cyano-N-ethyl-2,2,6a,6b,9,9,12a-heptamethyl-10,14-dioxo-1,3,4,5,6,6a,6b,7,8,8a,9,10,12a, 14,14a, 14b-hexadecahydropicene-4a (2H)-carboxamide] | 30687 and 31996 and 20309 and 17055 | 717 and 655 and 740 and 870 | 31341 | 686 | 25012 | 746 | – | – | MCP-1 production ([1]; listed as Batch #1 CDDO-EA): 31300 pg/mL; fold difference in the decrease of MCP-1 production ([1]; listed as Batch #1 CDDO-EA): about 3.6 fold |
| CCNC(=O)[C@]12CCC(C)(C)C[C@H]1C1C(=O)C=C3[C@@]4(C)C=C(C#N)C(=O)C(C)(C)[C@@H]4CC[C@@]3(C)[C@]1(C)CC2 (stereo partly drawn) [CDDO-EA #2, (4aS,6aR,6bS,8aR,12aS,14bS)-11-cyano-N-ethyl-2,2,6a,6b,9,9,12a-heptamethyl-10,14-dioxo-1,3,4,5,6,6a,6b, 7,8,8a,9,10,12a, 14,14a, 14b-hexadecahydropicene-4a (2H)-carboxamide] | 23503 and 25793 and 11890 and 14316 | 481 and 497 and 314 and 587 | 24648 | 489 | 18875 | 470 | – | – | MCP-1 production ([1]; listed as Batch #2 CDDO-EA): 24600 pg/mL; LPS-induced production of MCP-1 ([1]; RAW264.7, 500 nM 1 hour then 100 ng/ml LPS 6 hr): blocked the LPS-induced production of MCP-1; fold difference in the decrease of MCP-1 production ([1]; listed as Batch #2 CDDO-EA): ~4.6 fold |
| CC1(C)CC[C@]2(C(=O)n3ccnc3)CC[C@]3(C)[C@H](C(=O)C=C4[C@@]5(C)C=C(C#N)C(=O)C(C)(C)[C@@H]5CC[C@]43C)[C@@H]2C1 [CDDO-Im] | – | – | – | – | – | – | ability to modulate transforming growth factor-β (TGF-β)/Smad signaling | potent inducers of heme-oxygenase-1 and Nrf2/ARE signaling | energy expenditure (EE) [4]: increases energy expenditure (EE) in mice fed a HFD |
| COC(=O)[C@]12CCC(C)(C)C[C@H]1C1C(=O)C=C3[C@@]4(C)C=C(C#N)C(=O)C(C)(C)[C@@H]4CC[C@@]3(C)[C@]1(C)CC2 (stereo partly drawn) [CDDO-Me, methyl (4aS,6aR,6bS,8aR,12aS,14bS)-11-cyano-2,2,6a,6b,9,9,12a-heptamethyl-10,14-dioxo-1,3,4,5,6,6a,6b,7,8,8a,9,10,12a, 14,14a, 14b-hexadecahydropicene-4a (2H)-carboxylate] | – | – | – | – | – | – | ability to modulate transforming growth factor-β (TGF-β)/Smad signaling | potent inducers of heme-oxygenase-1 and Nrf2/ARE signaling | phosphorylation of IκB-α [5]: increase in phosphorylation of IκB-α; AMPK signaling [6]: activated AMPK signaling in isolated mouse hepatocytes and C2C12 muscle cells |
| CC1(C)CC[C@]2(C(=O)NCC(F)(F)F)CC[C@]3(C)[C@H](C(=O)C=C4[C@@]5(C)C=C(C#N)C(=O)C(C)(C)[C@@H]5CC[C@]43C)[C@@H]2C1 [CDDO-TFEA] | – | – | – | – | – | – | – | – | muscle strength and balance, survival ([7]; N171-82Q mice): improved muscle strength and balance and increased survival; accumulation in the skeletal muscle ([7]; Stack et al. (2010)): accumulated in the skeletal muscle; oxidative stress in skeletal muscle ([7]; Stack et al. (2010)): oxidative stress in skeletal muscle was reduced |
| Insulin: positive control for GLUT4myc translocation, 100 nM for 15 min [reference compound] | – | – | – | – | – | – | – | – | GLUT4myc translocation to the cell surface [8]: induced GLUT4myc translocation into the cell membrane; GLUT4 translocation to the cell surface (colorimetry assay) [9]: induce GLUT4 translocation to the cell surface |
